Assay: Thermodynamic aqueous solubility of crystalline Forms I and II of Compound 1 (HPLC)
Format: physicochemical
Method: Substance contents in test solutions were measured using HPLC Prominence/PDA detector (Shimadzu Corporation). The analytical conditions and calculation formula were as follows: […]
The thermodynamic solubility of Forms I and II was determined at pH 1.2 and pH 6.8 and in 20 mM GCDC, pH 6.8 at 37° C. with an equilibrium period for 2, 6 and 24 hours.

[1] = 20 mM GCDC (sodium glycochenodeoxycholate), pH 6.8, 37° C., 2 hrs equilibrium, average n=3
[2] = 20 mM GCDC (sodium glycochenodeoxycholate), pH 6.8, 37° C., 6 hrs equilibrium, average n=3
[3] = 20 mM GCDC (sodium glycochenodeoxycholate), pH 6.8, 37° C., 24 hrs equilibrium, average n=3
[4] = pH 6.8, 37° C., 2 hrs equilibrium, average n=3
[5] = pH 6.8, 37° C., 6 hrs equilibrium, average n=3
[6] = pH 6.8, 37° C., 24 hrs equilibrium, average n=3

| Aqueous Solubility [1] | Aqueous Solubility [2] | Aqueous Solubility [3] | Solubility compared between Form I and Form II (in words) (20 mM GCDC, pH 6.8, 37° C.) | Aqueous Solubility (pH 1.2, 37° C., 2 hrs equilibrium, average n=3) | Aqueous Solubility (pH 1.2, 37° C., 6 hrs equilibrium, average n=3) | Aqueous Solubility (pH 1.2, 37° C., 24 hrs equilibrium, average n=3) | Solubility compared between Form I and Form II (in words) (pH 6.8, 37° C.) | Aqueous Solubility [4] | Aqueous Solubility [5] | Aqueous Solubility [6] | Aqueous solubility compared between Form II and Form I (in words) (37° C., overall comparison of Tables 3 and 4) | solubility at 2 h (aqueous solution, pH 1.2, 37 °C, pH 1.2, simulated gastric fluid, thermodynamic from solid, 2 hrs equilibrium, average n=3) | solubility at 6 h (aqueous solution, pH 1.2, 37 °C, pH 1.2, simulated gastric fluid, thermodynamic from solid, 6 hrs equilibrium, average n=3) | solubility at 24 h (aqueous solution, pH 1.2, 37 °C, pH 1.2, simulated gastric fluid, thermodynamic from solid, 24 hrs equilibrium, average n=3) | Solubility compared between Form I and Form II (in words) (pH 6.8, 37° C., listed as Form II of Compound 1) | Structure (SMILES) |
| --- | --- | --- | --- | --- | --- | --- | --- | --- | --- | --- | --- | --- | --- | --- | --- | --- |
| 0.96 mg/mL | 0.98 mg/mL | 0.97 mg/mL | lower solubility than Form II | >10 mg/mL | >10 mg/mL | >10 mg/mL | lower solubility than Form II | 0.08 mg/mL | 0.08 mg/mL | 0.07 mg/mL | – | – | – | – | – | CONC(=O)Nc1ccc(-c2sc3c(c2CN(C)C)c(=O)n(-c2ccc(OC)nn2)c(=O)n3Cc2c(F)cccc2F)cc1 [Form I, N-(4-(1-(2,6-difluorobenzyl)-5-((dimethylamino)methyl)-3-(6-methoxy-3-pyridazinyl)-2,4-dioxo-1,2,3,4-tetrahydrothieno[2,3-d]pyrimidin-6-yl)phenyl)-N′-methoxyurea] |
| 2.75 mg/mL | 3.30 mg/mL | 4.12 mg/mL | – | – | – | – | – | 0.52 mg/mL | 0.51 mg/mL | 0.52 mg/mL | more soluble than Form I of Compound 1 | > 10000 µg/mL | > 10000 µg/mL | > 10000 µg/mL | higher aqueous solubility | CONC(=O)Nc1ccc(-c2sc3c(c2CN(C)C)c(=O)n(-c2ccc(OC)nn2)c(=O)n3Cc2c(F)cccc2F)cc1 [Form II, N-(4-(1-(2,6-difluorobenzyl)-5-((dimethylamino)methyl)-3-(6-methoxy-3-pyridazinyl)-2,4-dioxo-1,2,3,4-tetrahydrothieno[2,3-d]pyrimidin-6-yl)phenyl)-N′-methoxyurea] |

Source: US12338249B2, “Crystalline forms of N-(4-(1-(2,6-difluorobenzyl)-5-((dimethylamino)methyl)-3-(6-methoxy-3-pyridazinyl)-2,4-dioxo-1,2,3,4-tetrahydrothieno[2,3-d]pyrimidin-6-yl)phenyl)-N′-methoxyurea” (Sumitomo Pharma Switzerland GmbH, priority 2019, dated 2025)
